# Reference: patent US20160106689A1, “USE” (Novabiotics Limited, priority 2014, published 2016)
# Where a name gives a salt, the structure may show the parent alone. Read-outs that look alike come from different tables or passages of the source.
# Tested on: Pseudomonas aeruginosa (PAO1)
# Assay: MIC100 determination against the type strain of Pseudomonas aeruginosa (PAO1)
# Format: cell-based
# Conditions: for MIC: Pseudomonas aeruginosa
# Experimental: The MIC100 using cysteamine, oxidised cysteamine and cystamine against the type strain of Pseudomonas aeruginosa (PAO1) was determined. Cysteamine and ‘oxidised’ cysteamine (containing some cystamine) were consistently equivalent at either 250 μg/ml or (as shown in the summary table below) 500 μg/ml. We oxidised the cysteamine by leaving the powder exposed to the air (in a sterile environment) for 5 days—during which time it changes in appearance (turning from an off white crystalline morphology to more of a white powder). It often also accrues water as it is hygroscopic and can also react with air to produce water.
# [1] = PAO1, in CA-MHB, three replicates, repeated three times, read-out: MIC100 against PAO1 in CA-MHB
# [2] = PAO1, in MHB, three replicates, repeated three times, read-out: MIC100 against PAO1 in MHB
SMILES,"antibacterial activity (in words) (PAO1, oxidised cysteamine compared with fresh cysteamine)",MIC [1],MIC [2],"MIC (PAO1, text statement, medium not stated, consistently either 250 or 500 across experiments, read-out: MIC100 against PAO1)","MIC100 against PAO1 (medium not stated, consistently either 250 or 500 across experiments)"
"NCCSSCCN [Cystamine HCl, cystamine]",shown to be antibacterial,1000 µg/mL,1000 µg/mL,–,–
"NCCS [Cysteamine, cysteamine]",–,500 µg/mL,500 µg/mL,250 µg/mL,500 µg/mL
